# Where “and” joins values, the source holds several entries; their conditions need not be identical. Identical values can stand only once.
# Tested on: DOHH2 cells
# Test: RT2 Glucocorticoid signaling PCR array, DOHH2 cell line (Table 4b)
# Type: cell-based
# Conditions: DOHH2, 4 days
compound,measurement,setting,value
CCN(c1cc(-c2ccc(CN3CCOCC3)cc2)cc(C(=O)NCc2c(C)cc(C)[nH]c2=O)c1C)C1CCOCC1 [Compound 44],ACTB Ct Values,,14.519
same,ADARB1 Ct Values,,31.431
same,AFF1 Ct Values,,23.888
same,AK2 Ct Values,,20.173
same,AMPD3 Ct Values,,26.146
same,ANGPTL4 Ct Values,,30.820
same,ANXA4 Ct Values,,24.273
same,ARID68 Ct Values,,23.782
same,ASPH Ct Values,,22.823
same,ATF4 Ct Values,,19.190
same,B2M Ct Values,,18.576
same,BCL6 Ct Values,,21.323
same,BMPER Ct Values,,39.092
same,CALCR Ct Values,,33.360
same,CEBPA Ct Values,,30.676
same,CEBPB Ct Values,,23.925
same,COL4A2 Ct Values,,34.119
same,CREB1 Ct Values,,22.746
same,CREB3 Ct Values,,24.840
same,CREB3L4 Ct Values,,24.110
same,CTGF Ct Values,,32.760
same,CYB561 Ct Values,,31.945
same,DDIT4 Ct Values,,23.508
same,DUSP1 Ct Values,,27.132
same,EDN1 Ct Values,,32.260
same,EHD3 Ct Values,,28.852
same,ERRFI1 Ct Values,,30.163
same,FK8PS Ct Values,,21.520
same,FOSL2 Ct Values,,29.872
same,GAPDH Ct Values,,16.197
same,GDPD1 Ct Values,,27.570
same,GHRHR Ct Values,,39.644
same,GLUL Ct Values,,36.671
same,GOT1 Ct Values,,23.126
same,H6PD Ct Values,,24.377
same,HNRPLL Ct Values,,29.151
same,HPRT1 Ct Values,,21.561
same,IL1RN Ct Values,,32.271
same,IL6R Ct Values,,31.962
same,KLF9 Ct Values,,28.439
same,KLF13 Ct Values,,22.420
same,LOX Ct Values,,32.997
same,MERTK Ct Values,,32.456
same,NFKBIA Ct Values,,22.625
same,NR3C1 Ct Values,,22.430
same,PDCD7 Ct Values,,23.417
same,PDGFRB Ct Values,,35.193
same,PDP1 Ct Values,,25.175
same,PER1 Ct Values,,24.717
same,PER2 Ct Values,,23.835
same,PIK3R1 Ct Values,,23.712
same,PLEKHF1 Ct Values,,28.946
same,POU2F1 Ct Values,,24.003
same,POU2F2 Ct Values,,22.167
same,RASA3 Ct Values,,27.636
same,RGS2 Ct Values,,24.861
same,RHOB Ct Values,,30.745
same,RPLP0 Ct Values,,14.935
same,SESN1 Ct Values,,23.848
same,SGK1 Ct Values,,27.821
same,SLC10A6 Ct Values,,36.435
same,SLC19A2 Ct Values,,24.859
same,SLC22A5 Ct Values,,27.992
same,SNTA1 Ct Values,,24.550
same,SPHK1 Ct Values,,28.863
same,SPSB1 Ct Values,,26.652
same,STAT5A Ct Values,,23.771
same,STAT5B Ct Values,,22.328
same,TBL1XR1 Ct Values,,20.994
same,TNF Ct Values,,31.849
same,TNFAIP3 Ct Values,,27.520
same,TSC22D3 Ct Values,,24.752
same,USP2 Ct Values,,23.684
same,USPS4 Ct Values,,25.892
same,VDR Ct Values,,26.426
same,VLDLR Ct Values,,27.232
same,ZFP36 Ct Values,,23.980
same,ZHX3 Ct Values,,24.611
same,ZNF281 Ct Values,,23.541
same,PPC Ct Values,"array control, three lines",18.672 and 19.142 and 18.711
same,RTC Ct Values,"array control, three lines",21.345 and 21.410 and 21.384
same,ACTB ΔCT (B2M),normalized to B2M,−4.057
same,ADARB1 ΔCT (B2M),normalized to B2M,12.855
same,AFF1 ΔCT (B2M),normalized to B2M,5.312
same,AK2 ΔCT (B2M),normalized to B2M,1.597
same,AMPD3 ΔCT (B2M),normalized to B2M,7.570
same,ANGPTL4 ΔCT (B2M),normalized to B2M,12.244
same,ANXA4 ΔCT (B2M),normalized to B2M,5.697
same,ASPH ΔCT (B2M),normalized to B2M,4.247
same,ATF4 ΔCT (B2M),normalized to B2M,0.614
same,B2M ΔCT (B2M),normalized to B2M,0.000
same,BCL6 ΔCT (B2M),normalized to B2M,2.747
same,BMPER ΔCT (B2M),normalized to B2M,20.516
same,CALCR ΔCT (B2M),normalized to B2M,15.054
same,CEBPA ΔCT (B2M),normalized to B2M,12.100
same,CEBPB ΔCT (B2M),normalized to B2M,5.349
same,COL4A2 ΔCT (B2M),normalized to B2M,15.543
same,CREB1 ΔCT (B2M),normalized to B2M,4.170
same,CREB3L4 ΔCT (B2M),normalized to B2M,5.534
same,CREB3 ΔCT (B2M),normalized to B2M,6.264
same,CTGF ΔCT (B2M),normalized to B2M,14.184
same,CYB561 ΔCT (B2M),normalized to B2M,13.369
same,DDIT4 ΔCT (B2M),normalized to B2M,4.932
same,DUSP1 ΔCT (B2M),normalized to B2M,8.556
same,EDN1 ΔCT (B2M),normalized to B2M,13.684
same,EHD3 ΔCT (B2M),normalized to B2M,10.276
same,ERRFI1 ΔCT (B2M),normalized to B2M,11.587
same,FK8PS ΔCT (B2M),normalized to B2M,2.944
same,FOSL2 ΔCT (B2M),normalized to B2M,11.296
same,GAPDH ΔCT (B2M),normalized to B2M,−2.379
same,GDPD1 ΔCT (B2M),normalized to B2M,8.994
same,GHRHR ΔCT (B2M),normalized to B2M,21.068
same,GLUL ΔCT (B2M),normalized to B2M,18.095
same,GOT1 ΔCT (B2M),normalized to B2M,4.550
same,H6PD ΔCT (B2M),normalized to B2M,5.801
same,HNRPLL ΔCT (B2M),normalized to B2M,10.575
same,HPRT1 ΔCT (B2M),normalized to B2M,2.985
same,IL1RN ΔCT (B2M),normalized to B2M,13.695
same,IL6R ΔCT (B2M),normalized to B2M,13.386
same,IL6 ΔCT (B2M),normalized to B2M,15.874
same,KLF9 ΔCT (B2M),normalized to B2M,9.863
same,KLF13 ΔCT (B2M),normalized to B2M,3.844
same,LOX ΔCT (B2M),normalized to B2M,14.421
same,MERTK ΔCT (B2M),normalized to B2M,13.880
same,NFKBIA ΔCT (B2M),normalized to B2M,4.049
same,NR3C1 ΔCT (B2M),normalized to B2M,3.854
same,PDCD7 ΔCT (B2M),normalized to B2M,4.841
same,PDGFRB ΔCT (B2M),normalized to B2M,16.617
same,PDP1 ΔCT (B2M),normalized to B2M,6.599
same,PER1 ΔCT (B2M),normalized to B2M,6.141
same,PER2 ΔCT (B2M),normalized to B2M,5.259
same,PIK3R1 ΔCT (B2M),normalized to B2M,5.136
same,PLEKHF1 ΔCT (B2M),normalized to B2M,10.370
same,POU2F1 ΔCT (B2M),normalized to B2M,5.427
same,POU2F2 ΔCT (B2M),normalized to B2M,3.591
same,RASA3 ΔCT (B2M),normalized to B2M,9.060
same,RGS2 ΔCT (B2M),normalized to B2M,6.285
same,RHOB ΔCT (B2M),normalized to B2M,12.169
same,RPLP0 ΔCT (B2M),normalized to B2M,−3.641
same,SESN1 ΔCT (B2M),normalized to B2M,5.272
same,SGK1 ΔCT (B2M),normalized to B2M,9.245
same,SLC10A6 ΔCT (B2M),normalized to B2M,17.859
same,SLC19A2 ΔCT (B2M),normalized to B2M,6.283
same,SLC22A5 ΔCT (B2M),normalized to B2M,9.416
same,SNTA1 ΔCT (B2M),normalized to B2M,5.974
same,SPHK1 ΔCT (B2M),normalized to B2M,10.287
same,SPSB1 ΔCT (B2M),normalized to B2M,8.076
same,STAT5A ΔCT (B2M),normalized to B2M,5.195
same,STAT5B ΔCT (B2M),normalized to B2M,3.752
same,TBL1XR1 ΔCT (B2M),normalized to B2M,2.415
same,TNF ΔCT (B2M),normalized to B2M,13.273
same,TNFAIP3 ΔCT (B2M),normalized to B2M,8.944
same,TSC22D3 ΔCT (B2M),normalized to B2M,6.176
same,USP2 ΔCT (B2M),normalized to B2M,5.108
same,USPS4 ΔCT (B2M),normalized to B2M,7.316
same,VDR ΔCT (B2M),normalized to B2M,7.850
same,VLDLR ΔCT (B2M),normalized to B2M,8.656
same,ZFP36 ΔCT (B2M),normalized to B2M,5.404
same,ZHX3 ΔCT (B2M),normalized to B2M,6.035
same,ZNF281 ΔCT (B2M),normalized to B2M,4.965
same,RTC ΔCT (B2M),"normalized to B2M, array control, three lines",2.769 and 2.834 and 2.808
same,ADARB1 ΔΔCT,vs DMSO,0.046
same,AFF1 ΔΔCT,vs DMSO,−0.363
same,AK2 ΔΔCT,vs DMSO,0.272
same,AMPD3 ΔΔCT,vs DMSO,0.178
same,ANGPTL4 ΔΔCT,vs DMSO,0.119
same,ANXA4 ΔΔCT,vs DMSO,−0.111
same,ARID68 ΔΔCT,vs DMSO,0.334
same,ASPH ΔΔCT,vs DMSO,0.286
same,ATF4 ΔΔCT,vs DMSO,0.467
same,BCL6 ΔΔCT,vs DMSO,0.227
same,BMPER ΔΔCT,vs DMSO,1.488
same,CEBPA ΔΔCT,vs DMSO,−3.545
same,CEBPB ΔΔCT,vs DMSO,0.447
same,COL4A2 ΔΔCT,vs DMSO,2.238
same,CREB1 ΔΔCT,vs DMSO,0.249
same,CREB3L4 ΔΔCT,vs DMSO,0.138
same,CREB3 ΔΔCT,vs DMSO,0.344
same,CTGF ΔΔCT,vs DMSO,−0.518
same,CYB561 ΔΔCT,vs DMSO,−5.412
same,DDIT4 ΔΔCT,vs DMSO,0.007
same,DUSP1 ΔΔCT,vs DMSO,−0.039
same,EDN1 ΔΔCT,vs DMSO,1.460
same,EHD3 ΔΔCT,vs DMSO,−3.030
same,ERRFI1 ΔΔCT,vs DMSO,−1.929
same,FK8PS ΔΔCT,vs DMSO,−3.032
same,FOSL2 ΔΔCT,vs DMSO,−1.462
same,GDPD1 ΔΔCT,vs DMSO,0.471
same,GHRHR ΔΔCT,vs DMSO,2.393
same,GLUL ΔΔCT,vs DMSO,0.971
same,GOT1 ΔΔCT,vs DMSO,0.132
same,H6PD ΔΔCT,vs DMSO,0.093
same,HNRPLL ΔΔCT,vs DMSO,−0.740
same,KLF9 ΔΔCT,vs DMSO,0.181
same,KLF13 ΔΔCT,vs DMSO,−0.098
same,LOX ΔΔCT,vs DMSO,−0.132
same,MERTK ΔΔCT,vs DMSO,−0.108
same,NFKBIA ΔΔCT,vs DMSO,0.167
same,NR3C1 ΔΔCT,vs DMSO,0.261
same,PDCD7 ΔΔCT,vs DMSO,0.194
same,PDP1 ΔΔCT,vs DMSO,−0.255
same,PER1 ΔΔCT,vs DMSO,0.206
same,PER2 ΔΔCT,vs DMSO,−0.374
same,PIK3R1 ΔΔCT,vs DMSO,−0.032
same,PLEKHF1 ΔΔCT,vs DMSO,−0.507
same,POU2F1 ΔΔCT,vs DMSO,0.058
same,POU2F2 ΔΔCT,vs DMSO,0.131
same,RASA3 ΔΔCT,vs DMSO,0.917
same,RGS2 ΔΔCT,vs DMSO,0.504
same,RHOB ΔΔCT,vs DMSO,−1.483
same,SESN1 ΔΔCT,vs DMSO,0.055
same,SGK1 ΔΔCT,vs DMSO,0.621
same,SLC19A2 ΔΔCT,vs DMSO,−0.308
same,SLC22A5 ΔΔCT,vs DMSO,0.033
same,SNTA1 ΔΔCT,vs DMSO,0.399
same,SPHK1 ΔΔCT,vs DMSO,−1.381
same,SPSB1 ΔΔCT,vs DMSO,0.025
same,STAT5A ΔΔCT,vs DMSO,−0.033
same,STAT5B ΔΔCT,vs DMSO,0.258
same,TBL1XR1 ΔΔCT,vs DMSO,0.030
same,TNF ΔΔCT,vs DMSO,0.954
same,TNFAIP3 ΔΔCT,vs DMSO,−0.307
same,TSC22D3 ΔΔCT,vs DMSO,0.009
same,USP2 ΔΔCT,vs DMSO,0.013
same,USPS4 ΔΔCT,vs DMSO,−0.274
same,VDR ΔΔCT,vs DMSO,−0.547
same,VLDLR ΔΔCT,vs DMSO,0.499
same,ZFP36 ΔΔCT,vs DMSO,0.243
same,ZHX3 ΔΔCT,vs DMSO,−0.156
same,ZNF281 ΔΔCT,vs DMSO,−0.092

# From patent US10456407B2, “Combination therapy for treating cancer” (Epizyme, Inc., priority 2015, dated 2019)
